Values after ≈ are worked out from the molar mass of the structure shown.
How the values were obtained:
different cell lines = tested on: different cell lines; design: method as in PMID 38731527; conditions: across different cell lines, racemic form; cited from earlier work
Hemolysis assay = format: cell-based; conditions: human, human erythrocyte suspension, pH 7.4, 10 and 80 µg/mL
Description: Human blood samples were obtained from the Banc de Sang i Teixits de Barcelona (Barcelona, Spain) under the Catalan Department of Health. Blood was collected in tubes containing the anticoagulant EDTA-K3. Samples were centrifuged at 3000 rpm and 4 °C for 10 min (Megafuge 2.0 R, Heraeus Instruments, Hanau, Germany) to promote sedimentation, after which plasma was carefully eliminated using a Pasteur pipette. The remaining pellet was washed with PBS (pH 7.4) three times to remove residual leukocytes and platelets while concentrating erythrocytes. After the final wash, the erythrocyte pellet was resuspended in PBS (pH 7.4) at a 1:1 ratio to achieve a final erythrocyte concentration of 8 × 10^9 cells/mL.
The hemolysis assay is used to evaluate the ability of the tested compounds to disrupt erythrocyte membranes. Stock solutions of each compound were prepared in PBS (pH 7.4) at a concentration of 1 mg/mL. Volumes ranging from 10 to 80 μL were transferred into polystyrene tubes, followed by the addition of 25 µL of the erythrocyte suspension, bringing the total volume to 1 mL. The samples were incubated at room temperature under gentle rotation and subsequently centrifuged at 10,000 rpm for 5 min. The absorbance of the resulting supernatants at 540 nm (Shimadzu UV-160A, Shimadzu, Duisburg, Germany) was measured and compared with that of the positive control (erythrocytes hemolyzed with distilled water) and the negative control (erythrocytes suspension in PBS, pH 7.4).
The degree of hemolysis was determined using the following equation:Hemolysis (%) = 100 × (Abs − Abs0)/(Abs100 − Abs0) where Abs, Abs0 and Abs100 are the absorbance of the test samples, of the suspension treated with isotonic phosphate–buffered saline (PBS) and of the suspension of complete hemolysis treated with distilled water, respectively.

HaCaT cells [1] = assay: NRU cell viability assay, HaCaT; format: cell-based; conditions: Homo sapiens, 24 h
Description: (§1) The murine Swiss albino fibroblast (3T3), the immortal human keratinocyte (HaCaT), the squamous cell carcinoma (A431), the human epithelial carcinoma (HeLa) and the human breast adenocarcinoma (MCF-7) cell lines were sourced from Celltec UB (Barcelona, Spain). All cells were maintained and grown in DMEM medium (4.5 g/L glucose) supplemented with 10% (v/v) FBS, 2 mM L-glutamine, 100 U/mL penicillin and 100 μg/mL streptomycin at 37 °C, 5% CO2. Cells were routinely cultured in 75 cm^2 culture flasks and were trypsinized using trypsin-EDTA when the cells reached approximately 80%. Cell concentration in the resulting suspension was assessed using the trypan blue assay, which enables direct discrimination between viable (unstained) and non-viable (blue) cells.
(§2) T3 and HaCaT cells (1 × 10^5 cells/mL), along with A431, HeLa, and MCF-7 cells (5 × 10^4 cells/mL), were cultured at defined seeding densities in the 60 central wells of a 96-well plate. Cells were first incubated for 24 h under standard incubator conditions (5% CO2, 37 °C). After this period, the culture medium was removed, and the cells were incubated for an additional 24 h with their corresponding compound solutions (1 mg/mL) previously diluted in a minimum amount of DMF (dimethylformamide) and then in DMEM medium supplemented with 5% FBS (100 µL) at the required concentration range (20 to 250 µg/mL). Cell viability following exposure to the lactam derivatives was evaluated using two complementary assays: NRU and MTT.
(§3) The neutral red uptake (NRU) assay is based on the accumulation of dye in the lysosomes of viable cells. After the cells were incubated for 24 h with the corresponding systems, the medium was removed, and the solutions were incubated with the NR dye (Sigma-Aldrich, St. Louis, MO, USA) solution (50 µg/mL) dissolved in the medium, without FBS and without phenol red (Lonza, Verviers, Belgium), for 3 h. Cells were then washed with sterile PBS, followed by the addition of 100 µL of a solution containing 50% absolute ethanol and 1% acetic acid in distilled water to extract the dye. To promote the total dissolution of the dye, plates were placed in a microtiter-plate shaker for 5 min at room temperature. The absorbance of the resulting solutions was measured at 550 nm (Bio-Rad 550 microplate reader, Bio-Rad California, Hercules, CA, USA). Finally, the effect of each treatment was calculated as the percentage of dye uptake by viable cells relative to the control cells (cells without any treatment). […]

A431 cells [2] = assay: NRU cell viability assay, A431; format: cell-based, human; conditions: Homo sapiens, A-431, 24 h
Description: as §1, §2
(§4) The neutral red uptake (NRU) assay is based on the accumulation of dye in the lysosomes of viable cells. After the cells were incubated for 24 h with the corresponding systems, the medium was removed, and the solutions were incubated with the NR dye (Sigma-Aldrich, St. Louis, MO, USA) solution (50 µg/mL) dissolved in the medium, without FBS and without phenol red (Lonza, Verviers, Belgium), for 3 h. Cells were then washed with sterile PBS, followed by the addition of 100 µL of a solution containing 50% absolute ethanol and 1% acetic acid in distilled water to extract the dye. To promote the total dissolution of the dye, plates were placed in a microtiter-plate shaker for 5 min at room temperature. The absorbance of the resulting solutions was measured at 550 nm (Bio-Rad 550 microplate reader, Bio-Rad California, Hercules, CA, USA). Finally, the effect of each treatment was calculated as the percentage of dye uptake by viable cells relative to the control cells (cells without any treatment). Finally, the effect of each treatment was calculated as the percentage of dye retained by viable cells compared with untreated control cells.
(§5) The half-maximal inhibitory concentration (IC50) values for the different formulations, across cell lines and experimental endpoints, were obtained by fitting the concentration-dependent viability curves. […] These findings reflect the very low cytotoxicity of the compounds toward these cell lines.

MCF-7 cells [3] = assay: NRU cell viability assay, MCF-7; format: cell-based, human; conditions: Homo sapiens, MCF7; MCF-7, NRU, 24 h
Description: as §1, §2, §4, §5

HeLa cells [4] = assay: NRU cell viability assay, HeLa; format: cell-based, human; conditions: Homo sapiens, 24 h
Description: as §1, §2, §4, §5

MCF-7 cells [5] = assay: MTT cell viability assay, MCF-7; format: cell-based; conditions: Homo sapiens, MCF7; MCF-7, MTT, 24 h
Description: as §1, §2
(§6) Only living cells can reduce the yellow tetrazolium salt 3-(4,5-dimethyl-2-thiazolyl)-2,5-diphenyltetrazolium bromide (MTT) to insoluble purple formazan crystals. After a 24 h incubation of the cells with their corresponding NPs, the medium was removed and 100 µL of MTT (Sigma-Aldrich, St. Louis, MO, USA) in PBS (5 mg/mL) diluted 1:10 in culture medium without phenol red and without FBS (Lonza, Verviers, Belgium) was added to the cells. After 3 h of incubation, the medium was removed. Thereafter, 100 µL of DMSO (Sigma-Aldrich, St. Louis, MO, USA) was added to each well to dissolve the purple formazan crystals. Agitation and absorbance measurements of the extracted solution were carried out under the same conditions described for the NRU assay. The effect of each treatment was then expressed as the percentage of tetrazolium salt reduction by viable cells relative to untreated controls.
as §5

[6] = Cell viability assays (MTT and NRU), summary across the cell panel; format: cell-based; conditions: MTT, most cell lines, highest tested concentration
Description: as §1, §2
(§7) The neutral red uptake (NRU) assay is based on the accumulation of dye in the lysosomes of viable cells. After the cells were incubated for 24 h with the corresponding systems, the medium was removed, and the solutions were incubated with the NR dye (Sigma-Aldrich, St. Louis, MO, USA) solution (50 µg/mL) dissolved in the medium, without FBS and without phenol red (Lonza, Verviers, Belgium), for 3 h. […] The absorbance of the resulting solutions was measured at 550 nm (Bio-Rad 550 microplate reader, Bio-Rad California, Hercules, CA, USA). Finally, the effect of each treatment was calculated as the percentage of dye uptake by viable cells relative to the control cells (cells without any treatment). […]
(§8) Only living cells can reduce the yellow tetrazolium salt 3-(4,5-dimethyl-2-thiazolyl)-2,5-diphenyltetrazolium bromide (MTT) to insoluble purple formazan crystals. […] Agitation and absorbance measurements of the extracted solution were carried out under the same conditions described for the NRU assay. The effect of each treatment was then expressed as the percentage of tetrazolium salt reduction by viable cells relative to untreated controls. […]

[7] = tested on: 3T3, HaCaT, A431, HeLa and MCF-7 cells; assay: as above; format: cell-based; conditions: for IC50: MTT and NRU, summary statement over cell lines
Description: as §1, §2, §7, §8

HeLa cells [8] = assay: MTT cell viability assay, HeLa; format: cell-based; conditions: Homo sapiens, 24 h
Description: as §1, §2, §6, §5

3T3 cells [9] = assay: NRU cell viability assay, 3T3; format: cell-based; conditions: Mus musculus, NIH3T3; 3T3, NRU, 24 h
Description: as §1, §2, §3

3T3 cells [10] = assay: MTT cell viability assay, 3T3; format: cell-based; conditions: Mus musculus, NIH3T3; 3T3, MTT, 24 h
Description: as §1, §2, §6, §5

HaCaT cells [11] = assay: MTT cell viability assay, HaCaT; format: cell-based; conditions: Homo sapiens, 24 h
Description: as §1, §2, §6, §5

A431 cells [12] = assay: MTT cell viability assay, A431; format: cell-based; conditions: Homo sapiens, A-431, 24 h
Description: as §1, §2, §6, §5

A431 tumor cells = tested on: A431 tumor cells; design: method as in PMID 40283925; conditions: racemic form; cited from earlier work
zebrafish = tested on: zebrafish; design: method as in PMID 40283925; conditions: tested previously in zebrafish; cited from earlier work
3T3 fibroblasts = tested on: 3T3 fibroblasts; design: method as in PMID 40283925; conditions: normal 3T3 fibroblasts, racemic form; cited from earlier work

| IC50 (A431 cells [2]) [µg/mL] | IC50 (MCF-7 cells [3]) [µg/mL] | IC50 (HeLa cells [4]) [µg/mL] | IC50 (MCF-7 cells [5]) [µg/mL] | IC50 (HeLa cells [8]) [µg/mL] | IC50 (A431 cells [12]) [µg/mL] | Compound | IC50 (different cell lines) [µg/mL] | hemolysis (Hemolysis assay) [%] | IC50 (HaCaT cells [1]) [µg/mL] | viability at 24 h, 250 µg/mL [6] [%] | IC50 [7] [µg/mL] | cell survival ([7]; NRU, several lines, 250 µg/mL) | IC50 (3T3 cells [9]) [µg/mL] | IC50 (3T3 cells [10]) [µg/mL] | IC50 (HaCaT cells [11]) [µg/mL] | IC50 (A431 tumor cells) [µg/mL] | LC50 (zebrafish) [µg/mL] | IC50 (3T3 fibroblasts) [µg/mL] |
| --- | --- | --- | --- | --- | --- | --- | --- | --- | --- | --- | --- | --- | --- | --- | --- | --- | --- | --- |
| – | – | – | – | – | – | CC(C)(C)N1CC(CCl)C(Cl)(Cl)C1=O (stereo not drawn) [compound 2] | 100 to 250 | – | – | – | – | – | – | – | – | – | – | – |
| 123 (≈ 452 µM) | > 250 | 214 (≈ 786 µM) | > 250 | > 250 | 170 (≈ 624 µM) | C[C@@H](c1ccccc1)N1C[C@H](C)C(Cl)(Cl)C1=O [epi-3] | – | < 2 | > 250 | ≥ 80 | > 68 | around 60% | 77.2 (≈ 284 µM) | 68.1 (≈ 250 µM) | > 250 | – | – | – |
| 61.7 (≈ 227 µM) | > 250 | > 250 | > 250 | > 250 | 177 (≈ 651 µM) | C[C@H](c1ccccc1)N1C[C@@H](C)C(Cl)(Cl)C1=O [epi-4] | – | < 2 | > 250 | – | > 100 | – | 153 (≈ 563 µM) | 145 (≈ 534 µM) | > 250 | – | – | – |
| – | – | – | – | – | – | CC(C)(C)N1C(=O)C(Cl)(Cl)C1c1ccccc1 (stereo not drawn) [β-lactam 1] | – | – | – | – | – | – | – | – | – | 35 to 71 | 14.9 (≈ 54.7 µM) | > 210 |
